According to US20150057335A1, “NOVEL FUSION GENES IDENTIFIED IN LUNG CANCER” (National Cancer Center, priority 2013, published 2015):

How the values were obtained:
EZR-ERBB4 fusion protein = assay: Constitutive activation of ERBB4 kinase by EZR-ERBB4 fusion and its inhibition (NIH3T3, immunoblotting); format: cell-based, mouse; details: NIH3T3 cells stably expressing EZR-ERBB4, serum-starved, treated for 2 hours; FIG. 10B
Source text: Whole-cell lysates were subjected to immunoblotting.

[1] = tested on: HER2:HER3 signaling activated by CD74-NRG1 fusion in EFM-19 cells; assay: HER2:HER3 signaling activation by CD74-NRG1 (EFM-19 reporter cells, conditioned medium, immunoblotting); format: cell-based, human; details: EFM-19 cells treated 30 minutes with conditioned medium from H1299 cells expressing CD74-NRG1; FIG. 10A
Procedure: To determine whether cells expressing CD74-NRG1 cDNA secreted NRG1 ligands that activate HER2:HER3 intracellular signaling, EFM-19 breast cancer cells which express both the ERRB2/HER2 and ERBB3/HER3 proteins were used as reporter cells, as previously described (Wilson T. R., et al., Cancer Cell., 2011, 20, 158-72). NCI-H1299 cells transiently transfected with CD74-NRG1-expressing plasmids or empty (control) plasmids were washed twice with PBS and serum-starved overnight by incubation in a serum-free medium. After harvesting of the medium, centrifugation was performed at 4° C. for 5 minutes to remove cell debris. […] Then, whole-cell lysates were subjected to SDS-PAGE and immunoblotting. Cells were lysed in a RIPA buffer supplemented with Complete Protease and PhosSTOP Phosphatase Inhibitor Cocktail (Roche, Mannheim, Germany). Proteins were subjected to SDS-PAGE, followed by immunoblotting onto polyvinylidene difluoride membranes. The membranes were blocked for one hour with TBS supplemented with 0.1% Tween 20 and 1.0% BSA, and then probed with primary antibodies. After washing with TBS supplemented with 0.1% Tween 20, the membranes were incubated with horseradish peroxidase-conjugated anti-mouse or anti-rabbit secondary antibodies, and then visualized with an enhanced chemiluminescence reagent (Perkin Elmer, Waltham, Mass., USA). Signal intensity was calculated using the LAS3000 imaging system (Quansys Biosciences, West Logan, Utah, USA).

[2] = target: TRIM24-BRAF fusion protein (Homo sapiens, UniProt P15056); details: NIH3T3 cells stably expressing TRIM24-BRAF, serum-starved, treated for 2 hours; FIG. 10C
Sequence of TRIM24-BRAF fusion protein (P15056 with tags, fused parts or gaps): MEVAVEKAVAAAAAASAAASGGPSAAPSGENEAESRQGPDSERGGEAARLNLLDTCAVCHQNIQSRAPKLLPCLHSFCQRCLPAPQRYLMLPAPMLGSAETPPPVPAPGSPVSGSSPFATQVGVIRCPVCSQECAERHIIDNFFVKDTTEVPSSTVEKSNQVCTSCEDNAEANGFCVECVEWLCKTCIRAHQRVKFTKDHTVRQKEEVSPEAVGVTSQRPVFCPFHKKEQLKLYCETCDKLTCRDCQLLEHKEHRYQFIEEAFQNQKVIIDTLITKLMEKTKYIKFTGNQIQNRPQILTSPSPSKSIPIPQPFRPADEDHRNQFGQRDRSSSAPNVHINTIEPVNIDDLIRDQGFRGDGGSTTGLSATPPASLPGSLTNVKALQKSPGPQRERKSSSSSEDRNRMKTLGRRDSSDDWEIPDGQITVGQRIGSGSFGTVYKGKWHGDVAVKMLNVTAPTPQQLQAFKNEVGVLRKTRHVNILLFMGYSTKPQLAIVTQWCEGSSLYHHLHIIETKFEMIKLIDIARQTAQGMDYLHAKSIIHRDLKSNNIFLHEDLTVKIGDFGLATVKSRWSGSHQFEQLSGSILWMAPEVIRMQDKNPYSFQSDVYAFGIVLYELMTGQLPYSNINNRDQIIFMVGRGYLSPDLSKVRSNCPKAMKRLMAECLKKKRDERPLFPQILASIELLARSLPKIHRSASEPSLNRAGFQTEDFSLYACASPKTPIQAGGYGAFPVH
Procedure: NIH3T3 cells stably transduced with plasmids expressing EZR-ERBB4 or TRIM24-BRAF cDNA or with empty plasmids were maintained in a serum-free medium overnight, and then treated with DMSO (Sigma) or the indicated inhibitor (dissolved in DMSO) for 2 hours. Whole-cell lysates were subjected to immunoblotting.
Cells were lysed in a RIPA buffer supplemented with Complete Protease and PhosSTOP Phosphatase Inhibitor Cocktail (Roche, Mannheim, Germany). Proteins were subjected to SDS-PAGE, followed by immunoblotting onto polyvinylidene difluoride membranes. The membranes were blocked for one hour with TBS supplemented with 0.1% Tween 20 and 1.0% BSA, and then probed with primary antibodies. After washing with TBS supplemented with 0.1% Tween 20, the membranes were incubated with horseradish peroxidase-conjugated anti-mouse or anti-rabbit secondary antibodies, and then visualized with an enhanced chemiluminescence reagent (Perkin Elmer, Waltham, Mass., USA). Signal intensity was calculated using the LAS3000 imaging system (Quansys Biosciences, West Logan, Utah, USA).

CS(=O)(=O)CCNCc1ccc(-c2ccc3ncnc(Nc4ccc(OCc5cccc(F)c5)c(Cl)c4)c3c2)o1 [lapatinib]
suppressed: Phosphorylation of ERBB4 (EZR-ERBB4 fusion protein) | Phosphorylation of ERK (EZR-ERBB4 fusion protein) | Phosphorylation of ERK [1] | Phosphorylation of HER2 (ERBB2) [1] | Phosphorylation of HER3 (ERBB3) [1]

N#CC(=C(/N)Sc1ccccc1N)/C(C#N)=C(\N)Sc1ccccc1N [U0126]
suppressed: ERK phosphorylation (activation) [2]
